{
  "source": "patent US6310176A",
  "about": "“Antimicrobially active polypeptides” (SBL Vaccin AB, priority 1996, dated 2001)",
  "key": {"[1]": {"test_system": "Bacillus megaterium BM11", "assay": "Antimicrobial inhibition zone assay, B. megaterium", "assay_type": "cell-based", "conditions": "B. megaterium BmII; inhibition zones on agarose plates", "experimental": "(§1) Antimicrobial assay. The antibacterial activity was tested against Bacillus megaterium BM11, Staphylococcus aureus Cowahl, Streptococcus pyogenes b hemolytic group A, Pseudomonas aeruginosa ATCC 15692, Escherichia coli D21, E. coli D21e7, E. coli D21f1, E. coli D21f2 and E. coli D22, using an inhibition zone assay on LB broth/1% agarose plates seeded with 2×10^5 viable bacteria (Hultmark, D., Engstrom, A., Andersson, K., Steiner, H., Bennich, H. & Boman, H. G. (1983) Insect immunity. Attacin, a family of antibacterial proteins from Hyulophora cecropin, EMBO J. 2, 571-576). Fresh cultures of Candida albicans ATCC 10261 were inoculated in WB broth, pH 6.5, and grown at 37° C. to approximately 0.6 OD600. Before plating, cultures were diluted 300 fold and then incubated overnight at 37° C. in the presence of the test peptide, the concentration of which was established by amino acid analysis. Inhibition zones were measured and the lethal concentration (LC, the lowest concentration that inhibits the growth) was calculated from the diameter of the zones obtained in serial dilutions of the test substance by using the formula given in Hultmark, D., Engstrom, A., Andersson, K., Steiner, H., Bennich, H. & Boman, H. G. (1983) Insect immunity. […] Values are expressed as the mean of at least 5 experiments with a divergence of not more than one dilution step."}, "[2]": {"test_system": "Staphylococcus aureus Cowan1", "assay": "Antimicrobial inhibition zone assay, S. aureus", "assay_type": "cell-based", "conditions": "inhibition zones on agarose plates", "experimental": "as §1"}, "[3]": {"test_system": "Escherichia coli D21", "assay": "Antimicrobial inhibition zone assay, E. coli D21", "assay_type": "cell-based", "conditions": "Table 2", "experimental": "as §1, with “step. […]” for “step.”"}, "[4]": {"test_system": "Human red cells", "assay": "Red blood cell lysis", "assay_type": "cell-based"}, "[5]": {"test_system": "Bacillus megaterium BM11", "conditions": "B. megaterium BmII; cecropin data from Hultmark et al. (1983); cited from earlier work"}, "[6]": {"test_system": "Staphylococcus aureus Cowan1", "conditions": "S. aureus Cowan1; cecropin data from Hultmark et al. (1983); cited from earlier work"}, "[7]": {"test_system": "Y. pseudotubercolosis", "conditions": "cecropin data from Hultmark et al. (1983); cited from earlier work"}, "[8]": {"test_system": "Escherichia coli D21", "conditions": "E. coli D21; cecropin data from Hultmark et al. (1983); cited from earlier work"}, "[9]": {"test_system": "Human red cells", "conditions": "cecropin data from Hultmark et al. (1983); cited from earlier work"}},
  "note": "Like-named read-outs stand apart in the source and are kept apart here. Where no end group is shown, it is not given here.",
  "data": [
    {"molecule": "CC[C@H](C)[C@H](NC(=O)CN)C(=O)NCC(=O)N[C@@H](C)C(=O)N[C@H](C(=O)N[C@@H](CC(C)C)C(=O)N[C@@H](CCCCN)C(=O)N[C@H](C(=O)N[C@@H](CC(C)C)C(=O)N[C@H](C(=O)N[C@H](C(=O)NCC(=O)N[C@@H](CC(C)C)C(=O)N1CCC[C@H]1C(=O)N[C@@H](C)C(=O)N[C@@H](CC(C)C)C(=O)N[C@H](C(=O)N[C@@H](CO)C(=O)N[C@@H](Cc1c[nH]c2ccccc12)C(=O)N[C@H](C(=O)N[C@@H](CCCCN)C(=O)N[C@@H](CCCNC(=N)N)C(=O)N[C@@H](CCCCN)C(=O)N[C@@H](CCCNC(=N)N)C(=O)N[C@@H](CCC(N)=O)C(=O)N[C@@H](CCC(N)=O)C(N)=O)[C@@H](C)CC)[C@@H](C)CC)[C@@H](C)O)[C@@H](C)O)C(C)C)C(C)C", "note": "[Melittin]", "values": [
      {"measurement": "Lethal concentration", "setting": "[1]", "value": 0.6, "unit": "µM"},
      {"measurement": "Lethal concentration", "setting": "[2]", "value": 0.2, "unit": "µM"},
      {"measurement": "Lethal concentration", "setting": "[3]", "value": 0.8, "unit": "µM"},
      {"measurement": "Lethal concentration (lytic activity)", "setting": "[4]", "value": 0.9, "unit": "µM"}
    ]},
    {"molecule": "Cecropin A: cecropin from insect hemolymph (KWKLFKKIEKVGQNIRDGIIKAGPAVAVVGQATQIAK; ends and bridges not checked; UniProt P01507 27-63, looked up)", "values": [
      {"measurement": "Lethal concentration", "setting": "[5]", "value": 0.5, "unit": "µM"},
      {"measurement": "Lethal concentration", "setting": "[6]", "value": "> 200", "unit": "µM"},
      {"measurement": "Lethal concentration", "setting": "[7]", "value": 0.5, "unit": "µM"},
      {"measurement": "Lethal concentration", "setting": "[8]", "value": 0.3, "unit": "µM"},
      {"measurement": "Lethal concentration (lytic activity)", "setting": "[9]", "value": "> 400", "unit": "µM"}
    ]},
    {"molecule": "FIGSALKVLAGVLPSVISWVKQ-NH2 [MLP]", "values": [
      {"measurement": "Lethal concentration (lytic activity)", "setting": "[4]", "value": 0.5, "unit": "µM"}
    ]},
    {"molecule": "FLPLIGRVLSGIL-NH2 [Temporin A]", "values": [
      {"measurement": "Lethal concentration (lytic activity)", "setting": "[4]", "value": "> 120", "unit": "µM"}
    ]},
    {"molecule": "LLPIVGNLLKSLL-NH2 [Temporin B]", "values": [
      {"measurement": "Lethal concentration (lytic activity)", "setting": "[4]", "value": "> 120", "unit": "µM"}
    ]}
  ]
}
